According to the supplement of paper PMC11451515:

System: P12-Ichikawa
Test: cell viability relative to DMSO control; higher = less cytotoxic
Conditions: 48 h
Method in brief: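 Before seeding, each leukemia line was adapted for at least four passages in each medium. NOMO1 or SEM cells (500 cells/well) and P12-Ichikawa cells (1000 cells/well) went into 1536-well plates at 5 μl, then received library compounds in DMSO by pin dosing across 11 threefold concentrations, 47 μM to 0.79 nM. Readout was CellTiter-Glo One luminescence after 48 h at 37°C, and viability is given as a per-plate percentage of DMSO wells, with cell-free wells as background.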

[1] = HPLM + 10% dialyzed FBS, 0.000781 µM
[2] = HPLM + 10% dialyzed FBS, 0.00234 µM
[3] = HPLM + 10% dialyzed FBS, 0.00702 µM
[4] = HPLM + 10% dialyzed FBS, 0.0211 µM
[5] = HPLM + 10% dialyzed FBS, 0.0632 µM
[6] = HPLM + 10% dialyzed FBS, 0.19 µM
[7] = HPLM + 10% dialyzed FBS, 0.569 µM
[8] = HPLM + 10% dialyzed FBS, 1.71 µM
[9] = HPLM + 10% dialyzed FBS, 5.12 µM
[10] = HPLM + 10% dialyzed FBS, 15.4 µM
[11] = HPLM + 10% dialyzed FBS, 46.1 µM
[12] = RPMI 5 mM glucose + 10% FBS, 0.000781 µM
[13] = RPMI 5 mM glucose + 10% FBS, 0.00234 µM
[14] = RPMI 5 mM glucose + 10% FBS, 0.00702 µM
[15] = RPMI 5 mM glucose + 10% FBS, 0.0211 µM
[16] = RPMI 5 mM glucose + 10% FBS, 0.0632 µM
[17] = RPMI 5 mM glucose + 10% FBS, 0.19 µM
[18] = RPMI 5 mM glucose + 10% FBS, 0.569 µM
[19] = RPMI 5 mM glucose + 10% FBS, 1.71 µM
[20] = RPMI 5 mM glucose + 10% FBS, 5.12 µM
[21] = RPMI 5 mM glucose + 10% FBS, 15.4 µM
[22] = RPMI 5 mM glucose + 10% FBS, 46.1 µM
[23] = RPMI 5 mM glucose + 10% dialyzed FBS, 0.000781 µM
[24] = RPMI 5 mM glucose + 10% dialyzed FBS, 0.00234 µM
[25] = RPMI 5 mM glucose + 10% dialyzed FBS, 0.00702 µM
[26] = RPMI 5 mM glucose + 10% dialyzed FBS, 0.0211 µM
[27] = RPMI 5 mM glucose + 10% dialyzed FBS, 0.0632 µM
[28] = RPMI 5 mM glucose + 10% dialyzed FBS, 0.19 µM
[29] = RPMI 5 mM glucose + 10% dialyzed FBS, 0.569 µM
[30] = RPMI 5 mM glucose + 10% dialyzed FBS, 1.71 µM
[31] = RPMI 5 mM glucose + 10% dialyzed FBS, 5.12 µM
[32] = RPMI 5 mM glucose + 10% dialyzed FBS, 15.4 µM
[33] = RPMI 5 mM glucose + 10% dialyzed FBS, 46.1 µM

Row | SMILES | cell viability [1] [%] | cell viability [2] [%] | cell viability [3] [%] | cell viability [4] [%] | cell viability [5] [%] | cell viability [6] [%] | cell viability [7] [%] | cell viability [8] [%] | cell viability [9] [%] | cell viability [10] [%] | cell viability [11] [%] | cell viability [12] [%] | cell viability [13] [%] | cell viability [14] [%] | cell viability [15] [%] | cell viability [16] [%] | cell viability [17] [%] | cell viability [18] [%] | cell viability [19] [%] | cell viability [20] [%] | cell viability [21] [%] | cell viability [22] [%] | cell viability [23] [%] | cell viability [24] [%] | cell viability [25] [%] | cell viability [26] [%] | cell viability [27] [%] | cell viability [28] [%] | cell viability [29] [%] | cell viability [30] [%] | cell viability [31] [%] | cell viability [32] [%] | cell viability [33] [%]
1 | C[N]1C=NC=C1[C@@](N)(C2=CC=C(Cl)C=C2)C3=CC=C4N(C)C(=O)\C=C(\C5=CC=CC(=C5)Cl)C4=C3 | 111 | 110 | 113 | 106 | 109 | 97.4 | 82.4 | 79.2 | 73 | 50.1 | 27.9 | 110 | 113 | 113 | 106 | 100 | 81.2 | 82.9 | 69 | 67.7 | 42.1 | 32.3 | 105 | 114 | 115 | 100 | 107 | 92.2 | 85.5 | 72.8 | 69.6 | 59.9 | 39.3
2 | CN(C)Cc1ccc(-c2nc3cccc4c3n2CCNC4=O)cc1 | 90.5 | 100 | 105 | 103 | 109 | 102 | 112 | 109 | 108 | 114 | 110 | 92.8 | 96.3 | 94.7 | 108 | 108 | 105 | 106 | 107 | 109 | 109 | 106 | 90.2 | 99.1 | 101 | 109 | 107 | 111 | 107 | 108 | 105 | 102 | 112
3 | CN(C)CCOC(c1ccccc1)c1ccccc1 | 104 | 107 | 105 | 103 | 111 | 111 | 112 | 103 | 109 | 111 | 82.8 | 96.1 | 105 | 99.4 | 112 | 110 | 105 | 105 | 105 | 100 | 110 | 85.5 | 94 | 102 | 104 | 104 | 112 | 104 | 105 | 101 | 111 | 96.8 | 83
4 | Cc1cc(Nc2ncc(Cl)c(Nc3ccccc3[S+](=O)([O-])C(C)C)n2)c(OC(C)C)cc1C1CCNCC1 | 111 | 113 | 110 | 117 | 112 | 115 | 101 | 105 | 105 | 90.6 | 30.2 | 111 | 104 | 113 | 118 | 125 | 112 | 108 | 96.1 | 94.1 | 69.9 | 5.5 | 117 | 117 | 118 | 116 | 115 | 117 | 111 | 113 | 107 | 89.3 | 10.5
5 | Clc1cccc(-c2nnnn2Cc2cccnc2)c1Cl | 88.7 | 96 | 92.4 | 95.5 | 94.9 | 87.4 | 77.9 | 74.1 | 74.5 | 70.4 | 56.6 | 88.5 | 91.2 | 86.6 | 91.1 | 96.1 | 93.7 | 94.9 | 65.7 | 57 | 60.6 | 56.7 | 86.1 | 91.3 | 93.9 | 95.2 | 93.8 | 88.9 | 86.4 | 64.3 | 61.8 | 65.7 | 48.6
6 | COC1=CC=C2Nc3cc(Cl)ccc3C(N=C3C=C(CN4CCCC4)C(=O)C(CN4CCCC4)=C3)=C2N1 | 116 | 116 | 116 | 122 | 123 | 123 | 120 | 127 | 124 | 117 | 103 | 110 | 131 | 114 | 130 | 133 | 130 | 133 | 132 | 129 | 122 | 87.6 | 113 | 123 | 120 | 126 | 120 | 115 | 127 | 125 | 115 | 117 | 93
7 | Cc1ccc(C(C)(O)c2nc3ccccc3s2)c(C)c1 (centres undefined) | 97.8 | 110 | 103 | 108 | 106 | 114 | 82 | 109 | 79.4 | 37.5 | 10.2 | 91.2 | 105 | 107 | 111 | 100 | 107 | 91 | 113 | 70.8 | 51.2 | 8.46 | 95.5 | 103 | 102 | 111 | 111 | 98 | 101 | 108 | 79 | 63.9 | 13.2
8 | C[C@H]1CN(C[C@@H](C)O1)CC(=O)NC2=CC=C3SC4=C(CC3=C2)C=CC=C4\C5=C\C(=O)\C=C(/O5)N6CCOCC6 | 91.6 | 113 | 73.7 | 110 | 110 | 123 | 116 | 108 | 107 | 80.3 | 51.1 | 97.8 | 113 | 66.9 | 125 | 110 | 120 | 114 | 124 | 109 | 95.8 | 49.8 | 94.7 | 119 | 86.3 | 116 | 120 | 122 | 128 | 118 | 121 | 88.1 | 48.9
9 | O=[N+]([O-])c1cn2c(n1)OC[C@@H](OCc1ccc(OC(F)(F)F)cc1)C2 | 124 | 126 | 121 | 120 | 120 | 111 | 113 | 111 | 112 | 118 | 110 | 124 | 125 | 138 | 141 | 131 | 132 | 127 | 118 | 105 | 111 | 121 | 120 | 116 | 111 | 126 | 115 | 113 | 113 | 100 | 101 | 109 | 107
10 | COC[C@H](NC(=O)c1cnc(C)s1)C(=O)N[C@@H](COC)C(=O)N[C@@H](Cc1ccccc1)C(=O)[C@@]1(C)CO1 | 96.6 | 99.8 | 98.3 | 95 | 105 | 69.8 | 4.41 | 3.23 | 1.91 | 1.12 | 2.28 | 89 | 98.2 | 99.8 | 96.3 | 89.8 | 78.5 | 3.57 | 2.76 | 1.79 | 1.04 | 1.83 | 90.8 | 93.5 | 94.3 | 95.7 | 87.4 | 58.1 | 3.41 | 2.83 | 1.67 | 0.842 | 1.82
11 | CN1CCCN(C(=O)c2cccc(-c3ccc(/C=C4/C(=O)Nc5ccc(Cl)cc54)o3)c2)CC1 | 106 | 119 | 114 | 116 | 114 | 120 | 106 | 92.3 | 76.9 | 76.9 | 59.2 | 117 | 108 | 111 | 117 | 115 | 110 | 102 | 85.8 | 54.7 | 20.1 | 3.03 | 103 | 107 | 117 | 114 | 113 | 108 | 111 | 90.7 | 64.3 | 53 | 5.68
12 | CCC[C@@H]1C[C@@H](C(=O)N[C@@H]([C@H]2O[C@H](SC)[C@H](O)[C@@H](O)[C@H]2O)[C@@H](C)O)N(C)C1.Cl | 119 | 113 | 122 | 111 | 122 | 125 | 111 | 98.8 | 97.8 | 106 | 100 | 119 | 114 | 106 | 112 | 119 | 123 | 89.9 | 83 | 96 | 102 | 101 | 122 | 117 | 128 | 140 | 145 | 108 | 66.4 | 70 | 112 | 95.9 | 94.4
13 | O=C1NC(=O)[C@@H](c2cn3c4c(cccc24)CCC3)[C@@H]1c1c[nH]c2ccccc12 | 99 | 96.4 | 103 | 98.7 | 105 | 103 | 93.8 | 56 | 23.3 | 20.7 | 18.5 | 93.1 | 111 | 102 | 107 | 107 | 102 | 90.9 | 48.4 | 11.9 | 17.9 | 14.3 | 105 | 105 | 99.9 | 111 | 117 | 113 | 109 | 78 | 34.6 | 30 | 33.1
